Data published in BindingDB's records for doi:10.1021/ml400168h (Merck Research Laboratories, 2013).

Target: Sterol O-acyltransferase 1 / ACAT1 (Homo sapiens) (UniProt P35610)
Assay: Inhibition of human ACAT1

Sterol O-acyltransferase 1 / ACAT1 (Homo sapiens), sequence (P35610 whole entry, looked up): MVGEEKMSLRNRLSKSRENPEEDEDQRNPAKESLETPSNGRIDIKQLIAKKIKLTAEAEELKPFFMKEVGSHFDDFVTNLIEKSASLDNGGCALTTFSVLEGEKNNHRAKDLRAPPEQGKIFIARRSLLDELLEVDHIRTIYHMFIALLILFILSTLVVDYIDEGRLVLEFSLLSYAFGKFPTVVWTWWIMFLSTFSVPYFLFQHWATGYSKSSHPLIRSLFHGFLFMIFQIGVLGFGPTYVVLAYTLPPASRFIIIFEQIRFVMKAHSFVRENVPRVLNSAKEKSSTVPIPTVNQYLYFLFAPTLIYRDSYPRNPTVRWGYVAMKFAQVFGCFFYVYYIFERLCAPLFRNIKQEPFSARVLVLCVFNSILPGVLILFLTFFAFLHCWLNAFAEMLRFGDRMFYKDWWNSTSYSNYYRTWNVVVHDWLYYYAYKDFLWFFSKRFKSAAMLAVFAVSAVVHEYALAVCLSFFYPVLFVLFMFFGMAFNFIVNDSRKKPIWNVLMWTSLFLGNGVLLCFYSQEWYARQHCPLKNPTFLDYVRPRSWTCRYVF

| SMILES | IC50 |
| --- | --- |
| O=C(O)[C@H]1CC[C@H](Oc2ccc(-c3ccc(-c4nc5ccc(F)cc5[nH]4)cn3)cn2)CC1 | > 10 µM |
| O=C(O)[C@H]1CC[C@@H](Oc2ccc(-c3ccc(-c4nc5ccc(F)cc5[nH]4)cn3)cn2)CC1 | > 10 µM |
| O=C(O)[C@H]1CC[C@H](Oc2ccc(-c3ccc(-c4nc5ccccc5[nH]4)cn3)cn2)CC1 | 6.07 µM |
| O=C(O)[C@H]1CC[C@@H](Oc2ccc(-c3ccc(-c4nc5ccccc5[nH]4)cn3)cn2)CC1 | 8.08 µM |
| COc1ccc2[nH]c(-c3ccc(-c4ccc(O[C@H]5CC[C@H](C(=O)O)CC5)nc4)nc3)nc2n1 | 4.9 µM |
| COc1ccc2[nH]c(-c3ccc(-c4ccc(O[C@H]5CC[C@@H](C(=O)O)CC5)nc4)nc3)nc2n1 | 2.48 µM |
| CS(=O)(=O)c1ccc2nc(-c3ccc(-c4ccc(O[C@H]5CC[C@H](C(=O)O)CC5)nc4)nc3)[nH]c2c1 | > 10 µM |
| CS(=O)(=O)c1ccc2nc(-c3ccc(-c4ccc(O[C@H]5CC[C@@H](C(=O)O)CC5)nc4)nc3)[nH]c2c1 | > 10 µM |
| O=C(O)[C@H]1CC[C@@H](Oc2ccc(-c3ccc(-c4nc5ccc(OC(F)(F)F)cc5[nH]4)cn3)cn2)CC1 | 0.772 µM |
| N#Cc1ccc2nc(-c3ccc(-c4ccc(O[C@H]5CC[C@H](C(=O)O)CC5)nc4)nc3)[nH]c2c1 | > 10 µM |
| N#Cc1ccc2nc(-c3ccc(-c4ccc(O[C@H]5CC[C@@H](C(=O)O)CC5)nc4)nc3)[nH]c2c1 | > 10 µM |
| O=C(O)[C@H]1CC[C@H](Oc2ccc(-c3ccc(-c4nc5cc(F)c(F)cc5[nH]4)cn3)cn2)CC1 | 8.44 µM |
| O=C(O)[C@H]1CC[C@@H](Oc2ccc(-c3ccc(-c4nc5cc(F)c(F)cc5[nH]4)cn3)cn2)CC1 | > 10 µM |
| O=C(O)C[C@H]1CC[C@H](c2ccc(-c3ccc(-c4nc5ccc(Cl)cc5[nH]4)cn3)cc2)CC1 | 0.167 µM |
| O=C(O)C[C@H]1CC[C@H](c2ccc(-c3ccc(-c4nc5ccc(C(F)(F)F)cc5[nH]4)cn3)cc2)CC1 | 0.293 µM |
| O=C(O)[C@H]1CC[C@H](Oc2ccc(-c3ccc(-c4nc5ccc(Cl)cc5[nH]4)cn3)cn2)CC1 | 1.34 µM |
| O=C(O)[C@H]1CC[C@@H](Oc2ccc(-c3ccc(-c4nc5ccc(Cl)cc5[nH]4)cn3)cn2)CC1 | 3.53 µM |
| O=C(O)[C@H]1CC[C@H](Oc2ccc(-c3ccc(-c4nc5ccc(C(F)(F)F)cc5[nH]4)cn3)cn2)CC1 | 1.23 µM |
| O=C(O)[C@H]1CC[C@@H](Oc2ccc(-c3ccc(-c4nc5ccc(C(F)(F)F)cc5[nH]4)cn3)cn2)CC1 | 1.09 µM |
